Measurements as given in ChEMBL document CHEMBL5335816, “3-Amino-5,6,7,8-tetrahydrothieno[2,3-b]quinoline-2-carbonitrile: A fluorescent molecule that induces differentiation in PC12 cells” (Bioorg Med Chem, 2024).
Blank lines part the entries; values can stand above or below the compound they belong to. The source made the active and inactive calls. No cut-off for these calls is given here.

Legend:
PC-12 [1] = experiment: Neuritogenic activity in rat PC12 cells assessed as induction of neural differentiation at 5 to 10 uM incubated for 96 hrs by microscopic analysis; type: functional, cell-based; conditions: dose 5-10 µM
PC-12 [2] = experiment: Neuritogenic activity in rat PC12 cells assessed as induction of neural differentiation incubated for 96 hrs by microscopic analysis; type: functional, cell-based; conditions: dose > 5.0 µM
[3] = Drug uptake in rat PC12 cells by HPLC analysis; type: ADME, cell-based; conditions: pc-12
[4] = Drug metabolism in rat PC12 cells assessed as formation of 3-amino-5,6,7,8-tetrahydrothieno[2,3-b]quinoline-2-carbonitrile metabolite by HPLC analysis; type: ADME, cell-based; conditions: pc-12
[5] = Drug uptake in rat PC12 cells by fluorescence based assay; type: ADME, cell-based; conditions: pc-12
[6] = Drug metabolism in rat PC12 cells assessed as formation of 3-amino-5,6,7,8-tetrahydrothieno[2,3-b]quinoline-2-carbonitrile metabolite by fluorescence based assay; type: ADME, cell-based; conditions: pc-12
PC-12 [7] = experiment: Induction of neural differentiation in rat PC12 cells assessed as increase in Tuj-1 expression at 10 uM incubated for 96 hrs by immunofluorescence staining based assay; type: functional, cell-based
[8] = Fluorescent property of compound in toluene assessed as wavelength of excitation; type: physicochemical
[9] = Fluorescent property of compound in chloroform as wavelength of excitation; type: physicochemical
[10] = Fluorescent property of compound in acetonitrile assessed as wavelength of excitation; type: physicochemical
[11] = Fluorescent property of compound in DMSO assessed as wavelength of excitation; type: physicochemical
[12] = Fluorescent property of compound in methanol assessed as wavelength of excitation; type: physicochemical
[13] = Fluorescent property of compound in toluene assessed as wavelength of emission; type: physicochemical
[14] = Fluorescent property of compound in chloroform assessed as wavelength of emission; type: physicochemical
[15] = Fluorescent property of compound in acetonitrile assessed as wavelength of emission; type: physicochemical
[16] = Fluorescent property of compound in DMSO assessed as wavelength of emission; type: physicochemical
[17] = Fluorescent property of compound in methanol assessed as wavelength of emission; type: physicochemical
PC-12 [18] = experiment: Neuritogenic activity in NGF-insensitive rat PC12 cells assessed as fold increase in induction of neural differentiation at 20 uM incubated for 96 hrs by microscopic analysis relative to control; type: functional
[19] = Drug uptake in cytoplasm of rat PC12 cells incubated for 24 hrs by fluorescence staining based microscopy; type: ADME, subcellular; conditions: pc12, 24 h
[20] = Drug uptake in rat PC12 cells at 20 uM incubated upto 2 hrs by HPLC analysis; type: ADME, cell-based; conditions: pc-12, 2 h

SMILES: CCOC(=O)c1sc2nc3c(cc2c1N)CCCC3
Activity (PC-12 [1]): inactive

SMILES: CC(=O)c1sc2nc3c(cc2c1N)CCCC3
Activity (PC-12 [1]): inactive

SMILES: N#Cc1sc2nc(N3CCCCC3)c3c(c2c1N)CCCC3
Activity (PC-12 [1]): inactive

SMILES: N#Cc1sc2nc3c(cc2c1N)CCC3
Activity (PC-12 [1]): Active

Drug uptake [3]: Active
Drug metabolism [4]: Metabolite_Detected
Drug uptake [5]: Active
Drug metabolism [6]: Metabolite_Detected
SMILES: N#Cc1sc2nc3c(cc2c1NC=O)CCCC3
Activity (PC-12 [1]): Active
Activity (PC-12 [2]): Dose-Dependent Effect
Activity (PC-12 [7]): Active

SMILES: NC(=O)c1sc2nc3c(cc2c1N)CCCC3
Activity (PC-12 [1]): inactive

SMILES: N#Cc1sc2nc(N3CCOCC3)c3c(c2c1N)CCCC3
Activity (PC-12 [1]): inactive

Activity [8]: 343 nm
Activity [9]: 343 nm
Activity [10]: 345 nm
Activity [11]: 359 nm
Activity [12]: 356 nm
Activity [13]: 434 nm
Activity [14]: 453 nm
Activity [15]: 460 nm
Activity [16]: 478 nm
Activity [17]: 485 nm
Drug uptake [19]: Active
Drug uptake [20]: Active
SMILES: N#Cc1sc2nc3c(cc2c1N)CCCC3
Activity (PC-12 [1]): Active
Activity (PC-12 [2]): Dose-Dependent Effect
Activity (PC-12 [7]): Active
fold change (FC) (PC-12 [18]): 20

SMILES: CC(=O)Nc1c(C#N)sc2nc3c(cc12)CCCC3
Activity (PC-12 [1]): inactive

SMILES: N#Cc1sc2ncccc2c1N
Activity (PC-12 [1]): inactive

SMILES: N#Cc1sc2ncc3c(c2c1N)CCCC3
Activity (PC-12 [1]): Active
